Source: patent US20230081426A1, “COMPOUNDS AND METHODS FOR KRAS MODULATION AND INDICATIONS THEREFOR” (Plexxikon Inc., priority 2020, published 2023)

Tests used:
[1] = target: T1, G12D-mutant human KRAS (amino acid residues 1-188) (Homo sapiens, UniProt P01116, G12D); assay: KRAS Binding Disruption Assay (AlphaScreen; biotinylated KRpep-2d analogue or RAF1-RBD), G12D; conditions: KRAS G12D; geometric mean; read-out: KRAS GMean IC50 (uM) MUTATION: G12D
T1 construct: G12D or G12C-mutant human KRAS (amino acid residues 1-188) with FLAG tag; made in house; host or cells: E. coli
In short: (§1)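 Compounds are titrated against 5-20 nM mutant KRAS and 5-20 nM of either a biotinylated KRpep-2d analogue or RAF1-RBD, incubated 1 h at 25° C. Disruption is detected as reduced Alpha signal after 1 h with donor and acceptor beads at 10 μg/mL.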

[2] = target: T2, G12C-mutant human KRAS (amino acid residues 1-188) (Homo sapiens, UniProt P01116, G12C); assay: KRAS Binding Disruption Assay (AlphaScreen; biotinylated KRpep-2d analogue or RAF1-RBD), G12C; conditions: geometric mean, read-out: KRAS GMean IC50 (uM) MUTATION: G12C
T2 construct: G12D or G12C-mutant human KRAS (amino acid residues 1-188) with FLAG tag; made in house; host or cells: E. coli
In short: as §1

[3] = target: T3, G12V-mutant human KRAS (amino acid residues 1-188) (Homo sapiens, UniProt P01116, G12V); assay: KRAS Binding Competition Assay (AlphaScreen; biotinylated KRpep-2d analogue), G12V; conditions: geometric mean, read-out: KRAS GMean IC50 (uM) MUTATION: G12V
T3 construct: G12V-mutant human KRAS (amino acid residues 1-188) with FLAG tag was purified from E. coli; made in house; host or cells: E. coli

Row | SMILES | IC50 [1] [µM] | IC50 [2] [µM] | IC50 [3] [µM]
1 | CN1CCC[C@H]1COc1nc(N2C[C@H]3CC[C@@H](C2)N3C(=O)Cc2c[nH]cn2)c2ccc(-c3cc(O)cc4ccccc34)cc2n1 [P-0117, 1-((1R,5S)-3-(7-(3-hydroxynaphthalen-1-yl)-2-(((S)-1-methylpyrrolidin-2-yl)methoxy)quinazolin-4-yl)-3,8-diazabicyclo[3.2.1]octan-8-yl)-2-(1H-imidazol-4-yl)ethan-1-one] | 0.0001 to 10 | 0.0001 to 10 | 0.0001 to 10
2 | CN1CC[C@H](NC(=O)N2[C@@H]3CC[C@H]2CN(c2nc(OCC45CCCN4CCC5)nc4cc(-c5cc(O)cc6ccccc56)ccc24)C3)C1 [P-0132, (1R,5S)-3-(7-(3-hydroxynaphthalen-1-yl)-2-((tetrahydro-1H-pyrrolizin-7a(5H)-yl)methoxy)quinazolin-4-yl)-N-((S)-1-methylpyrrolidin-3-yl)-3,8-diazabicyclo[3.2.1]octane-8-carboxamide] | 0.0001 to 10 | 0.0001 to 10 | 0.0001 to 10
3 | Oc1cc(-c2c(F)cc3c(N4C[C@H]5CC[C@@H](C4)N5)nc(OCC45CCCN4CCC5)nc3c2F)c2c(Cl)cccc2c1 [P-0137, 4-(4-((1R,5S)-3,8-diazabicyclo[3.2.1]octan-3-yl)-6,8-difluoro-2-((tetrahydro-1H-pyrrolizin-7a(5H)-yl)methoxy)quinazolin-7-yl)-5-chloronaphthalen-2-ol] | 0.0001 to 10 | 0.0001 to 10 | 0.0001 to 10
4 | O=C(c1n[nH]c(=O)[nH]1)N1[C@@H]2CC[C@H]1CN(c1nc(OCC34CCCN3CCC4)nc3cc(-c4cc(O)cc5ccccc45)ccc13)C2 [P-0099, 5-((1R,5S)-3-(7-(3-hydroxynaphthalen-1-yl)-2-((tetrahydro-1H-pyrrolizin-7a(5H)-yl)methoxy)quinazolin-4-yl)-3,8-diazabicyclo[3.2.1]octane-8-carbonyl)-2,4-dihydro-3H-1,2,4-triazol-3-one] | 0.0001 to 10 | 0.0001 to 10 | 0.0001 to 10
5 | CN(C)CC(=O)N1[C@@H]2CC[C@H]1CN(c1nc(OCC34CCCN3CCC4)nc3cc(-c4cc(O)cc5ccccc45)ccc13)C2 [P-0066, 2-(dimethylamino)-1-((1R,5S)-3-(7-(3-hydroxynaphthalen-1-yl)-2-((tetrahydro-1H-pyrrolizin-7a(5H)-yl)methoxy)quinazolin-4-yl)-3,8-diazabicyclo[3.2.1]octan-8-yl)ethan-1-one] | 0.0001 to 10 | 0.0001 to 10 | 0.0001 to 10

Continued, values first:

Row | IC50 [1] [µM] | IC50 [2] [µM] | IC50 [3] [µM] | SMILES
6 | 0.0001 to 10 | 0.0001 to 10 | 0.0001 to 10 | O=C(Nc1cn[nH]c1)N1[C@@H]2CC[C@H]1CN(c1nc(OCC34CCCN3CCC4)nc3cc(-c4cc(O)cc5ccccc45)ccc13)C2 [P-0126, (1R,5S)-3-(7-(3-hydroxynaphthalen-1-yl)-2-((tetrahydro-1H-pyrrolizin-7a(5H)-yl)methoxy)quinazolin-4-yl)-N-(1H-pyrazol-4-yl)-3,8-diazabicyclo[3.2.1]octane-8-carboxamide]
7 | 0.0001 to 10 | 0.0001 to 10 | 0.0001 to 10 | Oc1cc(-c2ccc3c(N4C[C@H]5CC[C@@H](C4)N5)nc(OC[C@@]45CCCN4C[C@H](F)C5)nc3c2F)c2c(Cl)cccc2c1 [P-0510, 4-(4-((1R,5S)-3,8-diazabicyclo[3.2.1]octan-3-yl)-8-fluoro-2-(((2R,7aS)-2-fluorotetrahydro-1H-pyrrolizin-7a(5H)-yl)methoxy)quinazolin-7-yl)-5-chloronaphthalen-2-ol]
8 | 0.0001 to 10 | 0.0001 to 10 | 0.0001 to 10 | O=C(NC1CCOC1)N1[C@@H]2CC[C@H]1CN(c1nc(OCC34CCCN3CCC4)nc3cc(-c4cc(O)cc5ccccc45)ccc13)C2 (stereo partly drawn) [P-0129, (1R,5S)-3-(7-(3-hydroxynaphthalen-1-yl)-2-((tetrahydro-1H-pyrrolizin-7a(5H)-yl)methoxy)quinazolin-4-yl)-N-(tetrahydrofuran-3-yl)-3,8-diazabicyclo[3.2.1]octane-8-carboxamide]
9 | 0.0001 to 10 | 0.0001 to 10 | 0.0001 to 10 | NS(=O)(=O)CC(=O)N1[C@@H]2CC[C@H]1CN(c1nc(OCC34CCCN3CCC4)nc3c(F)c(-c4cc(O)cc5ccccc45)ccc13)C2 [P-0352, 2-((1R,5S)-3-(8-fluoro-7-(3-hydroxynaphthalen-1-yl)-2-((tetrahydro-1H-pyrrolizin-7a(5H)-yl)methoxy)quinazolin-4-yl)-3,8-diazabicyclo[3.2.1]octan-8-yl)-2-oxoethane-1-sulfonamide]
10 | 0.0001 to 10 | 0.0001 to 10 | 0.0001 to 10 | CCC(=O)N1[C@@H]2CC[C@H]1CN(c1nc(OCC34CCCN3CCC4)nc3cc(-c4cc(O)cc5ccccc45)ccc13)C2 [P-0063, 1-((1R,5S)-3-(7-(3-hydroxynaphthalen-1-yl)-2-((tetrahydro-1H-pyrrolizin-7a(5H)-yl)methoxy)quinazolin-4-yl)-3,8-diazabicyclo[3.2.1]octan-8-yl)propan-1-one]
11 | 0.0001 to 10 | 0.0001 to 10 | 0.0001 to 10 | O=C1NCCC1NC(=O)N1[C@@H]2CC[C@H]1CN(c1nc(OCC34CCCN3CCC4)nc3cc(-c4cc(O)cc5ccccc45)ccc13)C2 (stereo partly drawn) [P-0135, (1R,5S)-3-(7-(3-hydroxynaphthalen-1-yl)-2-((tetrahydro-1H-pyrrolizin-7a(5H)-yl)methoxy)quinazolin-4-yl)-N-(2-oxopyrrolidin-3-yl)-3,8-diazabicyclo[3.2.1]octane-8-carboxamide]
12 | 0.0001 to 10 | 10 to 100 | 10 to 100 | CN1CCC[C@H]1COc1nc(N2CC3CC2CN3)c2cc(Cl)c(-c3cc(O)cc4ccccc34)c(F)c2n1 (stereo partly drawn) [P-0038, 4-(4-(2,5-diazabicyclo[2.2.1]heptan-2-yl)-6-chloro-8-fluoro-2-(((S)-1-methylpyrrolidin-2-yl)methoxy)quinazolin-7-yl)naphthalen-2-ol]
